Common to all, as to test: stopped-flow CO2 hydration assay
What all share (format): biochemical

One experiment deals with T1, hCA XII (Homo sapiens, UniProt O43570).
T1 construct: gene CA12; recombinant, obtained in-house
The following applies: read-out: KI (μM)^a,b / hCA XII. An excerpt: stopped-flow CO2 hydration assay on hCA XII

A further experiment deals with T2, hCA I (Homo sapiens, UniProt P00915).
T2 construct: gene CA1; recombinant, obtained in-house
The following applies: read-out: KI (μM)^a,b / hCA I. The source says: stopped-flow CO2 hydration assay on hCA I

Experiment [1] addresses T3, hCA II (Homo sapiens, UniProt P00918).
T3 construct: gene CA2; recombinant, obtained in-house
Conditions: CO2 […], […] HEPES pH […] NaClO4, […] h preincubation at room temperature; read-out: KI (μM)^a,b / hCA I.

The target of the next experiment is T4, hCA IX (Homo sapiens, UniProt Q16790).
T4 construct: gene CA9; recombinant, obtained in-house
The following applies: read-out: KI (μM)^a,b / hCA IX. The source says: stopped-flow CO2 hydration assay on hCA IX

Experiment [2] has as its target T3, hCA II. The following applies: CO2 1.7-17 mM, 20 mM HEPES pH 7.4, 20 mM NaClO4, 6 h preincubation at room temperature; read-out: KI (μM)^a,b / hCA I. An excerpt: stopped-flow CO2 hydration assay on hCA II
The mark [3] stands for this setting: CO2 […], […] HEPES pH […] NaClO4, […] h preincubation at room temperature.
Where [4] appears, read: CO2 1.7-17 mM, 20 mM HEPES pH 7.4, 20 mM NaClO4, 6 h preincubation at room temperature.

Where two headings read alike, the source gives them in different places. A value given as a limit tells only on which side of the number the result lay.

T2 sequence (P00915 2-261): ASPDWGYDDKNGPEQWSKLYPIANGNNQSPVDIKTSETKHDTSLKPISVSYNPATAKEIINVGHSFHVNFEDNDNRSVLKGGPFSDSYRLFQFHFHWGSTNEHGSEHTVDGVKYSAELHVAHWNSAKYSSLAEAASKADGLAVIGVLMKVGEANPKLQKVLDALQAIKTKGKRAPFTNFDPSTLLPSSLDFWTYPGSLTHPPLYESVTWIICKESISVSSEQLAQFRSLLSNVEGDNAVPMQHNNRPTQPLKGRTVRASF
T1 sequence (O43570 25-354 limits assumed): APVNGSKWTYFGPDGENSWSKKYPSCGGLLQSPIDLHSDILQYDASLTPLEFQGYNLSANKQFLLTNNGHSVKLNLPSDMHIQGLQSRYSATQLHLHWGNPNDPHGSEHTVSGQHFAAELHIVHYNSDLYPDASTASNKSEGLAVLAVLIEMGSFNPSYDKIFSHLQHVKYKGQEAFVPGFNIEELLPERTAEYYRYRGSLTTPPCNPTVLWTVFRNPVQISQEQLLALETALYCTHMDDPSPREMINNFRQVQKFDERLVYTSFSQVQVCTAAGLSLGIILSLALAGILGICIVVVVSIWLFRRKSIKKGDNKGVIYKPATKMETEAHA

As for `CCOP1(=O)CC=Cc2cc([N+](=O)[O-])ccc2O1` (stereo not shown) [6g, 2-Ethoxy-7-nitro-3H-benzo[f][1,2]oxaphosphepine 2-oxide], the Ki on hCA XII (setting [3]) is 0.95 µM; on hCA I (setting [3]), over 100 µM; on hCA II [1], over 100 µM; on hCA IX (setting [3]), 3.9 µM.
As to `O=P1(O)CC=Cc2cccc(Br)c2O1` [7d, 9-Bromo-2-hydroxy-3H-benzo[f][1,2]oxaphosphepine 2-oxide], the Ki at hCA XII (setting [3]) was 1.8 µM; on hCA I (setting [3]), over 100 µM; at hCA II [1] it was over 100 µM; on hCA IX (setting [3]) it was 2.5 µM.
Take “2-Hydroxy-3H-benzo[f][1,2]oxaphosphepine 2-oxide [7a]”: the Ki on hCA XII (setting [4]) is 0.51 µM; on hCA I (setting [4]), over 100 µM; at hCA IX (setting [4]), 1.3 µM; on hCA II [2], over 100 µM.
With `CCOP1(=O)CC=Cc2cc(Cl)cc(Cl)c2O1` (stereo not shown) [6f, 7,9-Dichloro-2-ethoxy-3H-benzo[f][1,2]oxaphosphepine 2-oxide], the Ki at hCA XII (setting [3]) was 3.4 µM; on hCA I (setting [3]), over 100 µM; on hCA II [1], over 100 µM; on hCA IX (setting [3]), 6.1 µM.
Turning to `O=[N+]([O-])c1ccc2c(c1)C=CCP(=O)(O)O2` [7g, 2-Hydroxy-7-nitro-3H-benzo[f][1,2]oxaphosphepine 2-oxide], the Ki on hCA XII (setting [3]) was 1 µM; on hCA I (setting [3]) it was over 100 µM; on hCA II [1], over 100 µM; at hCA IX (setting [3]) it was 0.67 µM.
For the compound `CCOP1(=O)CC=Cc2cccc(Br)c2O1` (stereo not shown) [6d, 9-Bromo-2-ethoxy-3H-benzo[f][1,2]oxaphosphepine 2-oxide], the Ki on hCA XII (setting [3]) is 3.3 µM; at hCA I (setting [3]), over 100 µM; on hCA II [1], over 100 µM; at hCA IX (setting [3]), 11.3 µM.
For `O=P1(O)CC=Cc2cc(Cl)cc(Cl)c2O1` [7f, 7,9-Dichloro-2-hydroxy-3H-benzo[f][1,2]oxaphosphepine 2-oxide], the Ki on hCA XII (setting [3]) is 1.7 µM; on hCA I (setting [3]), over 100 µM; at hCA II [1], over 100 µM; at hCA IX (setting [3]) it was 0.8 µM.
`CCOP1(=O)CC=Cc2ccccc2O1` (stereo not shown) [6a, 2-Ethoxy-3H-benzo[f][1,2]oxaphosphepine 2-oxide]: the results for the Ki at hCA I (setting [3]), on hCA II [1] and at hCA IX (setting [3]) were over 100 µM, over 100 µM and 0.82 µM, respectively.
As to `CCOP1(=O)CC=Cc2cc(I)ccc2O1` (stereo not shown) [6b, 2-Ethoxy-7-iodo-3H-benzo[f][1,2]oxaphosphepine 2-oxide], the Ki on hCA XII (setting [3]) is 2.4 µM; on hCA I (setting [3]) it was over 100 µM; on hCA II [1] it was over 100 µM; at hCA IX (setting [3]), 4.7 µM.
Turning to `O=P1(O)CC=Cc2cc(I)ccc2O1` [7b, 2-Hydroxy-7-iodo-3H-benzo[f][1,2]oxaphosphepine 2-oxide], the Ki at hCA XII (setting [3]) is 0.68 µM; on hCA I (setting [3]), over 100 µM; at hCA II [1] it was over 100 µM; on hCA IX (setting [3]), 0.88 µM.
As to `CCOP1(=O)CC=Cc2cc(Br)ccc2O1` (stereo not shown) [6c, 7-Bromo-2-ethoxy-3H-benzo[f][1,2]oxaphosphepine 2-oxide], the Ki is 1.6 µM on hCA XII (setting [3]), over 100 µM at hCA I (setting [3]), over 100 µM on hCA II [1] and 0.76 µM on hCA IX (setting [3]).
For the compound `CCOP1(=O)CC=Cc2cccc(OC)c2O1` (stereo not shown) [6e, 2-Ethoxy-9-methoxy-3H-benzo[f][1,2]oxaphosphepine 2-oxide], the Ki on hCA XII (setting [3]) is 7.4 µM; at hCA I (setting [3]) it was over 100 µM; on hCA II [1], over 100 µM; on hCA IX (setting [3]) it was 9 µM.
As for `O=P1(O)CC=Cc2cc(Br)ccc2O1` [7c, 7-Bromo-2-hydroxy-3H-benzo[f][1,2]oxaphosphepine 2-oxide], the Ki on hCA XII (setting [3]) was 0.96 µM; on hCA I (setting [3]), over 100 µM; on hCA II [1] it was over 100 µM; on hCA IX (setting [3]), 1 µM.
`COc1cccc2c1OP(=O)(O)CC=C2` [7e, 2-Hydroxy-9-methoxy-3H-benzo[f][1,2]oxaphosphepine 2-oxide]: the Ki on hCA XII (setting [3]) was 1.2 µM; at hCA I (setting [3]), over 100 µM; at hCA II [1], over 100 µM; at hCA IX (setting [3]), 1.8 µM.

The record behind these values is article PMC9668280, “3H-1,2-Benzoxaphosphepine 2-oxides as selective inhibitors of carbonic anhydrase IX and XII” (Journal of Enzyme Inhibition and Medicinal Chemistry, 2022).
